Structures can show the parent of a compound that is named as a salt.

In the assay the target is T1, proton pump (H+/K+-ATPase) (Sus scrofa, UniProt P19156).
T1 construct: used as an enzyme source of the in vitro enzyme reaction assay of proton pump; from tissue; host or cells: hog gastric fundic mucosa; membrane vesicles, lyophilized
T1 sequence (P19156 whole entry): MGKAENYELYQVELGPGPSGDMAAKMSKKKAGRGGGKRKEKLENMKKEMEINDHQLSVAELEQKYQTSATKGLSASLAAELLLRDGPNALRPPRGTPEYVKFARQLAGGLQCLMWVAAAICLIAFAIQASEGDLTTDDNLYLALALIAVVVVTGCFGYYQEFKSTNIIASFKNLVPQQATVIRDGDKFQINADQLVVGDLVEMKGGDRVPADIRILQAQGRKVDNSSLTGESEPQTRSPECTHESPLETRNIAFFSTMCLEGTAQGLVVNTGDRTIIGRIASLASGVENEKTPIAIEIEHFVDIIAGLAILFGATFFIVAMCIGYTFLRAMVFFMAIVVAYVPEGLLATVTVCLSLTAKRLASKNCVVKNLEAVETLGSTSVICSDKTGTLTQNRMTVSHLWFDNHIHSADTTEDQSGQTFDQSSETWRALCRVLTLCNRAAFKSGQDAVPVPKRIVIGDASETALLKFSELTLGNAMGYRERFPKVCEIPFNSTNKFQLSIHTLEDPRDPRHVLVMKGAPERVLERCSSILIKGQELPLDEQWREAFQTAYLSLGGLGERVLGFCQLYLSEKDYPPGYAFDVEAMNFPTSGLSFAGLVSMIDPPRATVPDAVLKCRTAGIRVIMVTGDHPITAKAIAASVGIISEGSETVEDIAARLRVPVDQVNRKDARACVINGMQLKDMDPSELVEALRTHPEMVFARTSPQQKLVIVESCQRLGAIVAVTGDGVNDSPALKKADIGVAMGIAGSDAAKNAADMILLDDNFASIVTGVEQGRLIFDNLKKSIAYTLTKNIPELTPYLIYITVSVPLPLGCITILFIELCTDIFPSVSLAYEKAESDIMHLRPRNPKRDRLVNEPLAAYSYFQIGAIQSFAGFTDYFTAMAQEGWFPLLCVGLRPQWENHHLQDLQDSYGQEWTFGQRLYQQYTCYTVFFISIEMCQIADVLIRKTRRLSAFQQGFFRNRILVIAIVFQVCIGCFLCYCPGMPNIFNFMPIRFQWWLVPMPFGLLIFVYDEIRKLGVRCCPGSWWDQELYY
T1 sequence (P18434 whole entry partner): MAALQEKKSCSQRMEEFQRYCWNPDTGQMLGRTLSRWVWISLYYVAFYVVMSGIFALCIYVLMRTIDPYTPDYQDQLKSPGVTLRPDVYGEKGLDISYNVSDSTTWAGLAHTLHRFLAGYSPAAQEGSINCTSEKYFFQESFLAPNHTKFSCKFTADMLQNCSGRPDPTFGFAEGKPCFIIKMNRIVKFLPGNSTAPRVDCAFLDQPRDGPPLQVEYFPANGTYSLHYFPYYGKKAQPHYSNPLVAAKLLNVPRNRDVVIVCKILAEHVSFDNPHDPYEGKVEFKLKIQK
Kind of assay: Inhibitory effects on proton pump (H+/K+-ATPase) activity. Type of assay: biochemical. To be noted: hog gastric vesicles, K+ stimulated H+/K+-ATPase activity, Pi at 620 nm, 30 minutes at 37° C. The protocol: 1-1. Preparation of gastric proton pump vesicles
The hog fundic regions containing parietal and peptic cells were scraped with slide-glass. The collected cells were suspended in 10 ml of 0.25M sucrose buffer and homogenized using a tight-fitting Teflon-glass homogenizer. The homogenate was centrifuged for 35 min at 8,000 rpm and the pellet was discarded. The supernatant was further centrifuged for 75 min at 25,000 rpm. The resulting pellets were re-suspended in the sucrose buffer (10 ml), and then the suspension was laid onto discontinuous density gradients consisting of 0.25M sucrose buffer and isolation medium containing 9% Ficoll (w/w). After being centrifuged for 3 hours and 15 minutes at 100,000×g, the material at the interface of sucrose buffer and Ficoll solution was collected and then centrifuged for 40 minutes at 100,000×g. The resulting pellets were re-suspended in 1 ml of 5 mM Hepes/Tris buffer (pH 6.1). This material was lyophilized and stored at −70° C. and used as an enzyme source of the in vitro enzyme reaction assay of proton pump.
1-2. Measurement of inhibitory effects on proton pump (H^+/K^+-ATPase) activity
The inhibitory effects of the compounds of the present invention against proton pump activity were evaluated in 96-well plate. In this assay, the K^+specific H^+/K^+-ATPase activity was calculated based on the difference between the activity of H^+/K^30 -ATPase activity with K^30 and without K^30 ion. In 96-well plate, 1% dimethylsulfoxide (DMSO) in buffer was added to negative and positive control groups and the diluted compounds of the present invention in buffer were added to test group. All assays were performed in 100μl reaction volume at room temperature, and the hog gastric vesicle was kept in ice before use. At the beginning of the reaction, 10μl of reaction buffer containing 1% DMSO was added to the negative and positive control groups and to reaction buffer each concentration of compounds in the test group. Then lyophilized vesicle in 5mM Pipes/Tris buffer (pH 6.1) was pre-incubated in the presence of various concentrations of test compounds. After a 5 minute incubation, negative and positive buffers were respectively added to the previous reaction mixture. As the substrate, ATP was added to the reaction buffer, and incubated for 30 minutes at 37° C. Enzymatic activity was stopped by the addition of colorimetric reagent (2X malachite green, 1X ammonium molybdate, X polyvinyl alcohol, 2X H2O) and the amount of mono phosphate (Pi) in the reaction was measured at 620nm using the micro plate reader (Genios Pro, TECAN). The difference between the Pi production with K^+and without K^+is taken as K^+stimulated H^+/K^+-ATPase activity. The IC50s of test compounds were calculated from each % inhibition value of compounds using the method of Litchfield-Wilcoxon (J. Pharmacol. Exp. Ther. (1949) 96, 99).
As to `Cc1c(C)n(Cc2ccc3ccccc3c2)c2c(N3CCc4ccccc4C3)cncc12` [Example 32, 1-(2-naphthylmethyl)-7-(1,2,3,4-tetrahydroisoquinolin-2-yl)-2,3-dimethyl-1H -pyrrolo[3,2-c]pyridine hydrochloride], 290 nM corresponded to half-maximal inhibition (IC50).
The compound `COC(=O)c1ccc(Cn2c(C)c(C)c3cncc(N4CCc5ccccc5C4)c32)cc1` [Example 29, 1-(4-methoxycarbonylbenzyl)-7-(1,2,3,4-tetrahydroisoquinolin-2-yl)-2,3-dimethyl-1H-pyrrolo[3,2-c]pyridine hydrochloride] returned a half-inhibitory concentration (IC50) of 320 nM.
For `Cc1ccc(C)c(Cn2c(C)c(C)c3cncc(OCc4ccc(F)cc4)c32)c1` [Example 13, 1-(2,5-dimethylbenzyl)-7-(4-fluorobenzyloxy)-2,3-dimethyl-1H -pyrrolo[3,2-c]pyridine hydrochloride] the value was 1020 nM.
`CCn1c(C)c(C)c2cncc(N3CCc4ccccc4C3)c21` [Example 40, 2-(1-ethyl-2,3-dimethyl-1H-pyrrolo[3,2-c]pyridin-7-yl)-1,2,3,4-tetrahydroisoquinoline hydrochloride] registered an IC50 of 30 nM.
Consider `Cc1c(C)n(Cc2ccc3c(c2)OCCO3)c2c(N3CCc4ccccc4C3)cncc12` [Example 30, 2-[1-(2,3-dihydrobenzo[1,4]dioxin-6-ylmethyl)-2,3-dimethyl-1H-pyrrolo[3,2-c]pyridin-7-yl]-1,2,3,4-tetrahydroisoquinoline hydrochloride], for which the IC50 is 170 nM. This IC50 lies about 5.7-fold higher than the previous one.
For `Cc1c(C)n(CC2CC2)c2c(OCc3ccc(F)cc3)cncc12` [Example 4, 1-cyclopropylmethyl-7-(4-fluorobenzyloxy)-2,3-dimethyl-1H -pyrrolo[3,2-c]pyridine hydrochloride], the IC50 turned out to be 10 nM.
`Cc1c(C)n(CC2OCCO2)c2c(N3CCc4ccccc4C3)cncc12` [Example 34, 1-(1,3-dioxolan-2-ylmethyl)-7-(1,2,3,4-tetrahydroisoquinolin-2-yl)-2,3-dimethyl-1H -pyrrolo[3,2-c]pyridine hydrochloride] had an IC50 of 190 nM. Against the preceding compound, the IC50 is about 19-fold higher.
The compound `Cc1ccc(Cn2c(C)c(C)c3cncc(OCc4ccc(F)cc4)c32)cc1` [Example 8, 7-(4-fluorobenzyloxy)-2,3-dimethyl-1-(4-methylbenzyl)-1H -pyrrolo[3,2-c]pyridine hydrochloride] gave an IC50 of 60 nM. Compared with the last compound, the IC50 is about 3.2-fold lower.
`Cc1c(C)n(Cc2ccccc2Cl)c2c(OCc3ccc(F)cc3)cncc12` [Example 14, 1-(2-chlorobenzyl)-7-(4-fluorobenzyloxy)-2,3-dimethyl-1H -pyrrolo[3,2-c]pyridine hydrochloride]: half-maximal inhibition (IC50) required 460 nM.
With `COc1cccc(Cn2c(C)c(C)c3cncc(OCc4ccc(F)cc4)c32)c1` [Example 7, 7-(4-fluorobenzyloxy)-1-(3-methoxybenzyl)-2,3-dimethyl-1H -pyrrolo[3,2-c]pyridine hydrochloride], the IC50 was 60 nM.
In the case of `Cc1c(C)n(CC2CC2)c2c(N3CCc4ccccc4C3)cncc12` [Example 39, 2-(1-cyclopropylmethyl-2,3-dimethyl-1H-pyrrolo[3,2-c]pyridin-7-yl)-1,2,3,4-tetrahydroisoquinoline hydrochloride] it was 240 nM; in that of `Cc1c(C)n(Cc2cccc(F)c2)c2c(OCc3ccc(F)cc3)cncc12` [Example 6, 1-(3-fluorobenzyl)-7-(4-fluorobenzyloxy)-2,3-dimethyl-1H -pyrrolo[3,2-c]pyridine hydrochloride], 30 nM; in that of `Cc1c(C)n(CC(C)C)c2c(OCc3ccc(F)cc3)cncc12` [Example 11, 7-(4-fluorobenzyloxy)-1-isobutyl-2,3-dimethyl-1H-pyrrolo[3,2-c]pyridine hydrochloride], 10 nM.
Turning to `Cc1c(C)n(Cc2ccccc2)c2c(N3CCc4ccccc4C3)cncc12` [Example 35, 1-benzyl-7-(1,2,3,4-tetrahydroisoquinolin-2-yl)-2,3-dimethyl-1H -pyrrolo[3,2-c]pyridine hydrochloride], the IC50 turned out to be 60 nM.
As to `CCn1c(C)c(C)c2cncc(OCc3ccc(F)cc3)c21` [Example 3, 1-ethyl-7-(4-fluorobenzyloxy)-2,3-dimethyl-1H-pyrrolo[3,2-c]pyridine hydrochloride], the half-inhibitory concentration (IC50) came out at 40 nM.
In the case of `Cc1c(C)n(Cc2ccc(F)cc2)c2c(N3CCc4ccccc4C3)cncc12` [Example 28, 2-[1-(4-fluorobenzyl)-2,3-dimethyl-1H-pyrrolo[3,2-c]pyridin-7-yl]-1,2,3,4-tetrahydroisoquinoline hydrochloride], half-maximal inhibition (IC50) was put at 190 nM. This IC50 lies about 4.8-fold higher than the previous one.
Regarding `C=COCCn1c(C)c(C)c2cncc(N3CCc4ccccc4C3)c21` [Example 33, 1-(2-vinyloxyethyl)-7-(1,2,3,4-tetrahydroisoquinolin-2-yl)-2,3-dimethyl-1H -pyrrolo[3,2-c]pyridine hydrochloride], the half-inhibitory concentration (IC50) stood at 410 nM. Against the preceding compound, the IC50 is about 2.2-fold higher.
In turn, `Cc1c(C)n(Cc2ccccc2F)c2c(OCc3ccc(F)cc3)cncc12` [Example 15, 1-(2-fluorobenzyl)-7-(4-fluorobenzyloxy)-2,3-dimethyl-1H -pyrrolo[3,2-c]pyridine hydrochloride] gave an IC50 of 190 nM.
Turning to `Cc1c(C)n(CC2CCC2)c2c(N3CCc4ccccc4C3)cncc12` [Example 37, 1-cyclobutylmethyl-7-(1,2,3,4-tetrahydroisoquinolin-2-yl)-2,3-dimethyl-1H -pyrrolo[3,2-c]pyridine hydrochloride], it took 750 nM to reach half-maximal inhibition (IC50).
In the case of `COCCn1c(C)c(C)c2cncc(N3CCc4ccccc4C3)c21` [Example 31, 1-(2-methoxyethyl)-7-(1,2,3,4-tetrahydroisoquinolin-2-yl)-2,3-dimethyl-1H -pyrrolo[3,2-c]pyridine hydrochloride] it was 170 nM.
`Cc1c(C)n(CC(C)C)c2c(N3CCc4ccccc4C3)cncc12` [Example 36, 1-isobutyl-7-(1,2,3,4-tetrahydroisoquinolin-2-yl)-2,3-dimethyl-1H -pyrrolo[3,2-c]pyridine hydrochloride] yielded a half-maximal inhibitory concentration (IC50) of 310 nM.
Regarding `Cc1c(C)n(Cc2ccc(C(F)(F)F)cc2)c2c(OCc3ccc(F)cc3)cncc12` [Example 10, 7-(4-fluorobenzyloxy)-2,3-dimethyl-1-(4-trifluoromethylbenzyl)-1H -pyrrolo[3,2-c]pyridine hydrochloride], it took 340 nM to reach half-maximal inhibition (IC50).
In the case of `Cc1c(C)n(Cc2cccc(C#N)c2)c2c(N3CCc4ccccc4C3)cncc12` [Example 41, 3-[7-(3,4-dihydro-1H-isoquinolin-2-yl)-2,3-dimethylpyrrolo[3,2-c]pyridin-1-ylmethyl]-benzonitrile hydrochloride] it was 1810 nM.
Consider `Cc1c(C)n(Cc2ccc(F)cc2)c2c(OCc3ccc(F)cc3)cncc12` [Example 9, 1-(4-fluorobenzyl)-7-(4-fluorobenzyloxy)-2,3-dimethyl-1H -pyrrolo[3,2-c]pyridine hydrochloride], for which the IC50 amounted to 50 nM.
In the case of `C=CCn1c(C)c(C)c2cncc(OCc3ccc(F)cc3)c21` [Example 5, 1-allyl-7-(4-fluorobenzyloxy)-2,3-dimethyl-1H-pyrrolo[3,2-c]pyridine hydrochloride] it was 280 nM; in that of `Cc1[nH]c2c(OCc3ccc(F)cc3)cncc2c1C` [Example 1, 7-(4-fluorobenzyloxy)-2,3-dimethyl-1H-pyrrolo[3,2-c]pyridine hydrochloride], 120 nM.
In the case of `Cc1[nH]c2c(N3CCc4ccccc4C3)cncc2c1C` [Example 27, 2-(2,3-dimethyl-1H-pyrrolo[3,2-c]pyridin-7-yl)-1,2,3,4-tetrahydroisoquinoline hydrochloride] it was 460 nM.

A word on the IC50: it is the concentration at which inhibition is half-maximal. A low value points to higher potency.
